≈ marks a conversion by molar mass, not a printed value. Entries after “also recorded” stand apart in the source; their conditions may differ.
Key:
[1] = test system: KYSE-70; experiment: Cytotoxicity assay (MTT), KYSE-70; format: cell-based; conditions: 48 h, 1.56-50 μg/mL tested; for Cytotoxicity against KYSE-70, IC50: human esophageal carcinoma cells; for IC50: KYSE-70, human esophageal carcinoma cells, read-out: Cytotoxicity against KYSE-70, IC50
Method: (§1) Test compounds were dissolved in dimethyl sulfoxide (DMSO) to make stock solutions and further diluted in culture medium. Human esophageal carcinoma cell lines (KYSE-70, KYSE-150, KYSE-450 and KYSE-520) were cultured in RPMI 1640 or DMEM medium containing 10% fetal bovine serum and 1% antibiotics (Penicillin and strep). 3×10^3 cells/well were seeded in a 96-well plate and allowed to attach to the plate overnight. After the recovery, cells were treated with 1.56, 3.125, 6.25, 12.5, 25, 50 μg/mL of compounds in culture medium for 48 h. Then, 20 μL of MTT (5 mg/mL stock in PBS) per well was added into the medium (200 μL) and incubated for 4 h at 37° C. Finally, the culture medium was removed and 200 μL of DMSO were added. Absorbance of the solution was measured using microplate reader spectrophotometer (Bio-Rad Laboratories, Inc., Hercules, Calif.) at a wavelength of 570 nm.

[2] = test system: KYSE-450; experiment: Cytotoxicity assay (MTT), KYSE-450; format: cell-based; conditions: 48 h, 1.56-50 μg/mL tested; for Cytotoxicity against KYSE-450, IC50: human esophageal carcinoma cells; for IC50: KYSE-450, human esophageal carcinoma cells, read-out: Cytotoxicity against KYSE-450, IC50
Method: as §1

[3] = test system: KYSE-150; experiment: Cytotoxicity assay (MTT), KYSE-150; format: cell-based; conditions: human esophageal carcinoma cells, 1.56-50 μg/mL tested; for Cytotoxicity against KYSE-150, IC50: 48 h; for IC50: Homo sapiens, KYSE-150, 48 h, read-out: Cytotoxicity against KYSE-150, IC50
Method: as §1

[4] = test system: KYSE-520; experiment: Cytotoxicity assay (MTT), KYSE-520; format: cell-based; conditions: human esophageal carcinoma cells, 1.56-50 μg/mL tested; for IC50: Homo sapiens, KYSE-520, 48 h, read-out: Cytotoxicity against KYSE-520, IC50
Method: as §1

[5] = test system: KYSE-150 cells; experiment: Tumor xenograft mouse model; format: in vivo, nude female mice; conditions: KYSE-150 xenograft
Method: The tumor xenograft mice were treated with a vehicle or compound 9 at 15 or 30 mg/kg once a day […] for 12 days. Tumor size was measured every two days and body weight was measured every day. On day 13, the mice were sacrificed, and tumor weight was measured (n=5, *p<0.05, **p<0.01, ***p<0.001, ****p<0.0001).
Six to eight weeks old nude female mice weighing about 16-20 g were purchased from the Laboratory Animal Services Center, the Chinese University of Hong Kong, and 2×10^6 KYSE-150 cells in […] saline were injected subcutaneously into the flanks of the mice. When the tumor volume reached about 100 mm^3, the mice were randomly divided into three groups (n=5). The control group was administered with saline, while compound 9 treatment groups were given different doses of 9 (15 or 30 mg/kg, respectively) by intraperitoneal injection. Tumor volume were measured by vernier caliper every two days for 12 days, and calculated according to the formula: Volume=(width)^2×length/2. At the end of observation, mice were killed to remove the tumors. Then the samples were fixed in 4% paraformaldehyde and embedded in paraffin. Five-micro-meter sections were stained with hematoxylin/eosin according to a standard procedure. Animal protocol was approved by the committee for Care of Laboratory Animals in the School of Chinese Medicine at the Hong Kong Baptist University.

[6] = 15 or 30 mg/kg once a day for 12 days

Row | SMILES | Cytotoxicity against KYSE-70, IC50 [1] [μg/mL] | Cytotoxicity against KYSE-70, IC50 ([1]; listed as compound 2) [μg/mL] | Cytotoxicity against KYSE-450, IC50 [2] [μg/mL] | Cytotoxicity against KYSE-450, IC50 ([2]; listed as compound 2) [μg/mL] | Cytotoxicity against KYSE-150, IC50 [3] [μg/mL] | Cytotoxicity against KYSE-150, IC50 ([3]; listed as compound 2) [μg/mL] | IC50 [4] [µg/mL] | IC50 [1] [µg/mL] | IC50 [2] [µg/mL] | IC50 [3] [µg/mL] | Cytotoxicity against KYSE-520, IC50 ([4]; 48 h) [μg/mL] | body weight [5, 6] | toxic death [5, 6] | weight of tumor ([5]; 15 or 30 mg/kg once a day for 12 days, day 13) | tumor growth / size of tumor ([5]; 15 or 30 mg/kg once a day for 12 days, vs control) | H&E staining of the tumor tissue (histological manifestation) ([5]; 15 or 30 mg/kg, vs control (orderly and tightly))
1 | COc1cc(C[C@@H](CO)[C@H](CO)Cc2cc(OC)c(O)c(OC)c2)cc(OC)c1O [Compound 2, 5,5′-Dimethoxysecoiso-lariciresinol] | 47.22 | ~50 | 39.21 | ~50 | 49.63 | ~50 | – | – | – | – | – | – | – | – | – | –
2 | COc1cc(CC(C)C(O)(CO)Cc2cc(OC)c(O)c(OC)c2)ccc1O (stereo not shown) [Compound 3, 2-(4-Hydroxy-3,5-dimethoxybenzyl)-3-(4-hydroxy-3-methoxybenzyl)-1,2-butanediol] | – | – | – | – | – | – | > 50 | > 50 | > 50 | 34.5 (≈ 87.9 µM) | – | – | – | – | – | –
3 | COc1cc([C@H]2Oc3c(OC)cc(CCCO)cc3[C@@H]2CO)ccc1O [Compound 8, Dihydrodehydrodiconifery Alcohol] | – | – | – | – | 31.86 | – | ~30 (≈ 83.2 µM) | > 50 | > 50 | ~30 (≈ 83.2 µM) | 37.34 | – | – | – | – | –
4 | COc1cc([C@H]2OC[C@H]3[C@@H]2CO[C@@H]3c2cc(OC)c(O)c(OC)c2)cc(OC)c1O [Compound 9, Syringaresinol] | – | – | – | – | – | – | > 50 | > 50 | > 50 | > 50 | – | suppresses the body weight; also recorded: less body weight loss | no toxic death | suppresses the weight of tumor | suppresses the size of tumor; also recorded: significant tumor growth delay | obviously loose and messy

Reference: US9775857B2, “Lignans isolated from Lasia spinosa (L.) Thwait” (Hong Kong Baptist University, priority 2015, dated 2017)
